Measured values taken from US20090130020A1, “DIAGNOSTIC AGENTS FOR POSITRON EMISSION IMAGING USING F-18 RADIO-LABELED AMINO-ALCOHOLS” (priority 2007, published 2009).

Assays:
[1] = test system: tumor cells lines A375, PC-3, HCT-116, A549 and DU-145; assay: Time dependent uptake of [F-18]-labeled compounds, all cell lines together; type: cell-based
Experimental: (§1) The uptake of [F-18]-labeled compounds was investigated by incubating 5×10^6 cells in 350 μl incubation buffer with 0.5 MBq [F-18]-labeled compound and taking aliquots at the various time points. The aliquots were transferred into oil, centrifuged shortly to separate cells from free compounds. The tubes were frozen, the cell pellet in the tip of the tube was cut off and radioactivity was measured in a gamma counter.
FIG. 7: Time dependent uptake of [F-18]-Fluoroethyl-Choline (FE-Ch) into the tumor cells lines A375, PC-3, HCT-116, A549 and DU-145.
FIG. 8: Time dependent uptake of [F-18]-Fluoroethyl-N-Methyl-Ethanolamine into the tumor cells lines A375, PC-3, HCT-116, A549 and DU-145.
FIG. 9: Time dependent uptake of [F-18]-Fluoroethyl-N-Ethyl-Ethanolamine into the tumor cells lines A375, PC-3, HCT-116, A549 and DU-145.
FIG. 10: Time dependent uptake of [F-18]-Fluoropropyl-N-Methyl-Ethanolamine into the tumor cells lines A375, PC-3, HCT-116, A549 and DU-145.

[2] = test system: lung cancer cell line A549; assay: Uptake of [F-18]-labeled compounds into tumor cells; type: cell-based; conditions: 5×10^6 cells, 0.5 MBq, time point not given
Experimental: as §1

PC-3 prostate cell line = assay: as above; type: cell-based; conditions: 5×10^6 cells, 0.5 MBq, time point not given
Experimental: as §1

[3] = test system: colon cancer cell line HCT-116; assay: as above; type: cell-based; conditions: 5×10^6 cells, 0.5 MBq, time point not given
Experimental: as §1

melanoma cell line A375 = assay: as above; type: cell-based; conditions: 5×10^6 cells, 0.5 MBq, time point not given
Experimental: as §1

[4] = test system: DU-145 prostate cell line; assay: as above; type: cell-based; conditions: 5×10^6 cells, 0.5 MBq, time point not given
Experimental: as §1

tumor = conditions: bio-distribution studies; cited from earlier work

| Compound | uptake after 30 min ([1]; after 30 min, across the cell lines (FIG. 8)) | uptake [2] [%] | uptake (PC-3 prostate cell line) [%] | uptake [3] [%] | uptake (melanoma cell line A375) [%] | uptake [4] [%] | maximum value of uptake reached after 60 min ([1]; after 60 min, all cell lines) | course of uptake over time ([1]; over the 60 minutes investigated) | tumor uptake in bio-distribution (tumor) |
| --- | --- | --- | --- | --- | --- | --- | --- | --- | --- |
| CN(CCO)CC[18F] [[F-18]-Fluoroethyl-N-Methyl-Ethanolamine, [F-18]2-[(2-Fluoro-ethyl)-methyl-amino]-ethanol] | 17-30% | 17 | 25.5 | 29 | 22 | 20.5 | – | – | – |
| C[N+](C)(CCO)CC[18F] [FE-Ch, [F-18]-Fluoroethyl-Choline] | – | 4 | 6.5 | 4 | 4 | 3 | 5-10% | slowly linear increasing | – |
| [C-14]ethanolamine [[C-14] derivative of ethanolamine (1)] | – | – | – | – | – | – | – | – | tumor uptake |
| [C-14]dimethyl-ethanolamine | – | – | – | – | – | – | – | – | tumor uptake |
